Each structure is given as a SMILES string. Where a name gives a salt, the structure may show the parent alone.

A word on the melting point: it is the temperature, or range, at which the solid turns liquid. Molecule `O=C(N[C@H](Cc1ccc(C(F)(F)F)cc1)[C@@H](O)c1ccc(Cl)nc1)c1ccc(F)c2ccccc12` (racemic) [Example 202, N-((1RS,2SR)-2-(6-chloro-3-pyridyl)-2-hydroxy-1-((4-(trifluoromethyl)phenyl)methyl)ethyl)-4-fluoro-1-naphthalenecarboxamide] showed a melting point of 188 to 189 °C. The result for `O=C(N[C@H](Cc1ccc(C(F)(F)F)cc1)[C@@H](O)c1ccc(F)cc1)c1ccc2c(c1)OCO2` (racemic) [Example 72, N-((1RS,2SR)-2-(4-fluorophenyl)-2-hydroxy-1-((4-(trifluoromethyl)phenyl)methyl)ethyl)-1,3-benzodioxole-5-carboxamide] reads 180 to 181 °C; that for `CC(C)(C)OC(=O)N[C@H](Cc1cccc(OC(F)(F)C(F)F)n1)[C@@H](O)c1ccc(F)cc1` (racemic) [Example 238, tert-butyl (1RS,2SR)-2-(4-fluorophenyl)-2-hydroxy-1-{[6-(1,1,2,2-tetrafluoroethoxy)pyridin-2-yl]methyl}ethylcarbamate], 109 to 110 °C. The value for `O=C(N[C@H](Cc1ccc(C(F)(F)F)cc1)[C@@H](O)c1ccc(F)cc1)c1ccc(/C=C\c2ccccc2Cl)cc1` (racemic) [Example 96, 4-[(Z)-2-(2-chlorophenyl)ethenyl]-N-[(1RS,2SR)-2-(4-fluorophenyl)-2-hydroxy-1-[4-(trifluoromethyl)benzyl]ethyl]benzenecarboxamide] was 153 to 154 °C; that for `O=C(N[C@H](Cc1cccc(C(F)(F)F)c1)[C@@H](O)c1ccc(F)cc1)C1CCCCC1` (racemic) [Example 138, N-((1RS,2SR)-2-(4-fluorophenyl)-2-hydroxy-1-((3-(trifluoromethyl)phenyl)methyl)ethyl)cyclohexanecarboxamide] was 190 to 191 °C; that for `COc1cccc(-c2ccc([C@H](O)[C@@H](Cc3cccc(OC(F)(F)C(F)F)c3)NC(=O)c3cccc4c3C=CCCC4)cc2)c1` (racemic) [Example 298, N-[(1RS,2SR)-2-hydroxy-2-(3′-methoxy[1,1′-biphenyl]-4-yl)-1-[3-(1,1,2,2-tetrafluoroethoxy)benzyl]ethyl]-6,7-dihydro-5H-benzo[a]cycloheptene-1-carboxamide] was 79 to 81 °C.

As for `O=C(CCc1ccccc1)N[C@H](Cc1ccc(C(F)(F)F)cc1)[C@@H](O)c1ccoc1` (racemic) [Example 196, N-((1RS,2SR)-2-(3-furanyl)-2-hydroxy-1-((4-(trifluoromethyl)phenyl)methyl)ethyl)-3-phenylpropanamide], the melting point lay within 134 to 135 °C. The result for `CC(C)C(F)(F)Cc1ccc(C[C@@H](NC(=O)c2cccc3c(Cl)cccc23)[C@@H](O)c2cccc(Cl)c2)cc1` (racemic) [Example 354, 5-chloro-N-[(1RS,2SR)-2-(3-chlorophenyl)-1-[4-(2,2-difluoro-3-methylbutyl)benzyl]-2-hydroxyethyl]naphthalene-1-carboxamide] reads 170 to 171 °C; that for `CN(C)c1ccc(C(=O)N[C@H](Cc2ccc(C(F)(F)F)cc2)[C@@H](O)c2ccc(F)cc2)c2ccccc12` (racemic) [Example 75, 4-(dimethylamino)-N-((1RS,2SR)-2-(4-fluorophenyl)-2-hydroxy-1-((4-(trifluoromethyl)phenyl)methyl)ethyl)-1-naphthalenecarboxamide], 169 to 170 °C. The result for `O=C(N[C@H](Cc1cccc(S(=O)(=O)C(F)(F)F)c1)[C@@H](O)c1ccc(F)cc1)c1cccc2c1C=CCCC2` (racemic) [Example 280, N-((1RS,2SR)-2-(4-fluorophenyl)-2-hydroxy-1-{3-[(trifluoromethyl)sulfonyl]benzyl}ethyl)-6,7-dihydro-5H-benzo[a][7]annulene-1-carboxamide] reads 156 to 157 °C; that for `O=C(N[C@H](Cc1cccc(OC(F)(F)C(F)F)c1)[C@@H](O)c1ccc(-c2ccc(Cl)cc2)cc1)c1cccc2c1C=CCCC2` (racemic) [Example 294, N-[(1RS,2SR)-2-(4′-chloro[1,1′-biphenyl]-4-yl)-2-hydroxy-1-[3-(1,1,2,2-tetrafluoroethoxy)benzyl]ethyl]-6,7-dihydro-5H-benzo[a]cycloheptene-1-carboxamide], 167 to 168 °C; that for `O=C(N[C@H](Cc1ccc(C(F)(F)F)cc1)[C@@H](O)c1ccc(F)cc1)c1ccc(CO)c2ccccc12` (racemic) [Example 105, N-((1RS,2SR)-2-(4-fluorophenyl)-2-hydroxy-1-((4-(trifluoromethyl)phenyl)methyl)ethyl)-4-(hydroxymethyl)-1-naphthalenecarboxamide], 202 to 203 °C. Turning to `O=C(NC(Cc1ccc(C(F)(F)F)cc1)C(O)c1ccc(F)cc1)c1ccccc1F` (racemic) [Example 18, 2-fluoro-N-[2-(4-fluorophenyl)-2-hydroxy-1-[[4-(trifluoromethyl)phenyl]methyl]ethyl]benzamide], the melting point was in the range of 115 to 117 °C. The value for `CC(C)(C)Cc1ccc(C[C@@H](NC(=O)c2cccc3c2C=CCCC3)[C@@H](O)c2cccc(Cl)c2)cc1` (racemic) [Example 344, N-[(1RS,2SR)-2-(3-chlorophenyl)-2-hydroxy-1-(4-neopentylbenzyl)ethyl]-6,7-dihydro-5H-benzo[a]cycloheptene-1-carboxamide] was 147 to 149 °C; that for `O=C(CCc1ccccc1)N[C@H](Cc1ccc(C(F)(F)F)cc1)[C@@H](O)c1ccccc1F` (racemic) [Example 180, N-((1RS,2SR)-2-(2-fluorophenyl)-2-hydroxy-1-((4-(trifluoromethyl)phenyl)methyl)ethyl)-3-phenylpropanamide] was 124 to 125 °C; that for `CC(C)(C)OC(=O)NCC(=O)O[C@H](c1ccc(F)cc1)[C@H](Cc1cccc(OC(F)(F)C(F)F)c1)NC(=O)c1ccc(F)c2ccccc12` (racemic) [Example 390, N-(tert-butoxycarbonyl)glycine (1RS,2SR)-2-[(4-fluoro-1-naphthoyl)amino]-1-(4-fluorophenyl)-3-[3-(1,1,2,2-tetrafluoroethoxy)phenyl]propyl ester] was 126 to 127 °C. The value for `COc1ccc(C(=O)N[C@H](Cc2ccc(C(F)(F)F)cc2)[C@@H](O)c2ccc(F)cc2)cc1` (racemic) [Example 60, N-((1RS,2SR)-2-(4-fluorophenyl)-2-hydroxy-1-((4-(trifluoromethyl)phenyl)methyl)ethyl)-4-(methyloxy)benzamide] was 192 to 193 °C. The value for `CC(C)(F)C(F)c1cccc(C[C@@H](NC(=O)c2cccc3c2C=CCCC3)[C@@H](O)c2ccc(F)cc2)c1` (mixture of isomers) [Example 342, N-[(1RS,2SR)-1-[3-(1,2-difluoro-2-methylpropyl)benzyl]-2-(4-fluorophenyl)-2-hydroxyethyl]-6,7-dihydro-5H-benzo[a]cycloheptene-1-carboxamide] was 102 to 104 °C; that for `O=C(CCc1ccccc1)N[C@H](Cc1ccc(C(F)(F)F)cc1)[C@@H](O)c1ccc(F)c(F)c1` (racemic) [Example 184, N-((1RS,2SR)-2-(3,4-difluorophenyl)-2-hydroxy-1-((4-(trifluoromethyl)phenyl)methyl)ethyl)-3-phenylpropanamide] was 114 to 115 °C; that for `O=C(N[C@H](Cc1ccc(C(F)(F)F)cc1)[C@@H](O)c1ccc(F)cc1)c1ccc(C(=O)c2ccc(F)cc2)cc1` (racemic) [Example 88, 4-(4-fluorobenzoyl)-N-[(1RS,2SR)-2-(4-fluorophenyl)-2-hydroxy-1-[4-(trifluoromethyl)benzyl]ethyl]benzenecarboxamide] was 156 to 157 °C. As for `COCc1ccc(C(=O)N[C@H](Cc2ccc(C(F)(F)F)cc2)[C@@H](O)c2ccc(F)cc2)c2ccccc12` (racemic) [Example 65, N-((1RS,2SR)-2-(4-fluorophenyl)-2-hydroxy-1-((4-(trifluoromethyl)phenyl)methyl)ethyl)-4-((methyloxy)methyl)-1-naphthalenecarboxamide], the melting point lay in the range of 170 to 171 °C. As to `O=C(N[C@H](Cc1cccc(OC(F)(F)F)c1)[C@@H](O)c1ccc(F)cc1)c1cccc2c1C=CCCC2` (racemic) [Example 133, N-[(1RS,2SR)-2-(4-fluorophenyl)-2-hydroxy-1-[3-(trifluoromethoxy)benzyl]ethyl]-6,7-dihydro-5H-benzo[a]cycloheptene-1-carboxamide], the melting point lay within 177 to 178 °C.

With `O=C(O)CCC(=O)O[C@H](c1ccc(F)cc1)[C@H](Cc1cccc(OC(F)(F)C(F)F)c1)NC(=O)c1ccc(F)c2ccccc12` (racemic) (as salt: succinate) [Example 388, (1RS,2SR)-2-[(4-fluoro-1-naphthoyl)amino]-1-(4-fluorophenyl)-3-[3-(1,1,2,2-tetrafluoroethoxy)phenyl]propyl hydrogen succinate], the melting point lay within 181 to 182 °C. The value for `O=C(N[C@H](Cc1ccc(C(F)(F)F)cc1)[C@@H](O)c1cccc(Oc2ccccc2)c1)c1ccc(F)c2ccccc12` (racemic) [Example 207, N-((1RS,2SR)-2-hydroxy-2-(3-phenoxyphenyl)-1-((4-(trifluoromethyl)phenyl)methyl)ethyl)-4-fluoro-1-naphthalenecarboxamide] was 184 to 185 °C; that for `COc1ccc(C[C@@H](NC(=O)C2CCCCC2)[C@@H](O)c2ccc(F)cc2)cc1` (racemic) [Example 150, N-((1RS,2SR)-2-(4-fluorophenyl)-2-hydroxy-1-((4-(methyloxy)phenyl)methyl)ethyl)cyclohexanecarboxamide] was 193 to 194 °C. The value for `CC(C)(C)OC(=O)Nc1ccc([C@H](O)[C@@H](Cc2cccc(OC(F)(F)C(F)F)c2)NC(=O)c2cccc3c2C=CCCC3)cc1` (racemic) [Example 321, N-[(1RS,2SR)-2-[4-[(tert-butoxycarbonyl)amino]phenyl]-2-hydroxy-1-[3-(1,1,2,2-tetrafluoroethoxy)benzyl]ethyl]-6,7-dihydro-5H-benzo[a]cycloheptene-1-carboxamide] was 153 to 156 °C.

These data come from patent US6982348B2, “Aminoethanol derivatives” (Takeda Pharmaceutical Company Limited, priority 2001, dated 2006).
